Measured values: patent US20170326125A1, “MULTISUBSTITUTED AROMATIC COMPOUNDS AS INHIBITORS OF THROMBIN” (VERSEON CORPORATION, priority 2016, published 2017)

Biological target: T1, Human thrombin (Homo sapiens, UniProt P00734)
T1 construct: purchased Haematologic Technologies Inc
Assay: Inhibition of the protease activity of thrombin (chromogenic substrate S-2238)
Format: biochemical
Settings: inhibition of the protease activity of thrombin

Structure (SMILES)	IC50 (class symbols a/b/c) [µM]	IC50 [µM]
CC(O)c1cc(-c2ccccn2)nn1CCc1ccc(F)cc1 (centres unmarked) [Cmpd 163, 1-1-[2-(4-fluorophenyl)ethyl]-3-(pyridin-2-yl)-1H-pyrazol-5-ylethan-1-ol]	> 1	–
CC(=O)c1cc(-c2ccccn2)nn1CCc1ccc(F)cc1 [Cmpd 164, 1-1-[2-(4-fluorophenyl)ethyl]-3-(pyridin-2-yl)-1H-pyrazol-5-ylethan-1-one]	> 1	–
CC(C)(C)C(=O)n1nc(-c2ccccn2)cc1NCc1ccoc1 [Cmpd 166, 1-5-[(furan-3-ylmethyl)amino]-3-(pyridin-2-yl)-1H-pyrazol-1-yl-2,2-dimethylpropan-1-one]	0.1 to 1	–
CC(C)(C)C(=O)Nc1nc(C(=O)N2CCOCC2)n[nH]1 [Cmpd 169, 2,2-dimethyl-N-3-[(morpholin-4-yl)carbonyl]-1H-1,2,4-triazol-5-ylpropanamide]	> 1	–
O=C(Oc1ccccc1Cl)n1nc(-c2cccnc2)nc1NCc1ccc(F)cc1 [Cmpd 172, 2-chlorophenyl 5-[(4-fluorophenyl)methyl]amino-3-(pyridin-3-yl)-1H-1,2,4-triazole-1-carboxylate]	> 1	–
CC(=O)Oc1ccccc1C(=O)n1nc(-c2ccccn2)nc1NCc1ccccc1 [Cmpd 177, 2-[5-(benzylamino)-3-(pyridin-2-yl)-1H-1,2,4-triazol-1-yl]carbonylphenyl acetate]	< 0.1	–
CCC(=O)n1nc(-c2cccnc2)nc1NCc1cccc(C#N)c1 [Cmpd 179, 3-([1-propanoyl-3-(pyridin-3-yl)-1H-1,2,4-triazol-5-yl]aminomethyl)benzonitrile]	> 1	–
COc1ccccc1C(=O)n1nc(-c2cccnc2)nc1SC [Cmpd 182, 3-1-[(2-methoxyphenyl)carbonyl]-5-(methylsulfanyl)-1H-1,2,4-triazol-3-ylpyridine]	< 0.1	–
O=C(Nc1ccccc1)c1cn(-c2ccccn2)nc1NCc1ccc(F)cc1 [Cmpd 183, 3-[(4-fluorophenyl)methyl]amino-N-phenyl-1-(pyridin-2-yl)-1H-pyrazole-4-carboxamide]	> 1	–
O=C(Nc1nc(C(=O)N2CCOCC2)n[nH]1)c1ccc(Cl)cc1 [Cmpd 184, 4-chloro-N-3-[(morpholin-4-yl)carbonyl]-1H-1,2,4-triazol-5-ylbenzamide]	> 1	–
Cc1ccc(C(=O)Nc2nc(C(=O)N3CCOCC3)n[nH]2)cc1 [Cmpd 185, 4-methyl-N-3-[(morpholin-4-yl)carbonyl]-1H-1,2,4-triazol-5-ylbenzamide]	> 1	–
CN(C)C(=O)c1n[nH]c(C(=O)Nc2ccccc2Cl)n1 [Cmpd 186, 5-C-(2-chlorobenzene)-3-N,3-N-dimethyl-1H-1,2,4-triazole-3,5-dicarboxamide]	> 1	–
CNC(=O)c1n[nH]c(C(=O)Nc2ccccc2Cl)n1 [Cmpd 187, 5-C-(2-chlorobenzene)-3-N-methyl-1H-1,2,4-triazole-3,5-dicarboxamide]	> 1	–
CN(C)C(=O)n1nc(-c2cccnc2)nc1NCc1ccc(F)cc1 [Cmpd 188, 5-[(4-fluorophenyl)methyl]amino-N,N-dimethyl-3-(pyridin-3-yl)-1H-1,2,4-triazole-1-carboxamide]	> 1	–
COC(=O)c1n[nH]c(NC(=O)c2ccccc2F)n1 [Cmpd 193, methyl 5-[(2-fluorobenzene)amido]-1H-1,2,4-triazole-3-carboxylate]	> 1	–
COC(=O)c1n[nH]c(NC(=O)c2cccc(Cl)c2)n1 [Cmpd 195, methyl 5-[(3-chlorobenzene)amido]-1H-1,2,4-triazole-3-carboxylate]	> 1	–
COc1ccccc1C(=O)n1nc(-c2ccccn2)nc1NCc1cc2ccccc2s1 [Cmpd 198, N-(1-benzothiophen-2-ylmethyl)-1-[(2-methoxyphenyl)carbonyl]-3-(pyridin-2-yl)-1H-1,2,4-triazol-5-amine]	> 1	–
O=C(Nc1ccccc1Cl)n1nc(-c2cccnc2)nc1NCc1ccc(F)cc1 [Cmpd 200, N-(2-chlorophenyl)-5-[(4-fluorophenyl)methyl]amino-3-(pyridin-3-yl)-1H-1,2,4-triazole-1-carboxamide]	–	> 1
COc1ccccc1C(=O)n1nc(-c2ccccn2)cc1NCc1ccco1 [Cmpd 201, N-(furan-2-ylmethyl)-1-[(2-methoxyphenyl)carbonyl]-3-(pyridin-2-yl)-1H-pyrazol-5-amine]	–	0.1 to 1

Next, values leading:

IC50 (class symbols a/b/c) [µM]	IC50 [µM]	Structure (SMILES)
> 1	–	Fc1ccc(CNc2nc(-c3ccccn3)n(Cc3ccccc3)n2)cc1 [Cmpd 162, 1-benzyl-N-[(4-fluorophenyl)methyl]-5-(pyridin-2-yl)-1H-1,2,4-triazol-3-amine]
> 1	–	O=C(Nc1nc(C(=O)N2CCOCC2)n[nH]1)c1ccccc1Cl [Cmpd 170, 2-chloro-N-3-[(morpholin-4-yl)carbonyl]-1H-1,2,4-triazol-5-ylbenzamide]
> 1	–	O=C(Nc1nc(C(=O)N2CCCC2)n[nH]1)c1ccccc1Cl [Cmpd 171, 2-chloro-N-3-[(pyrrolidin-1-yl)carbonyl]-1H-1,2,4-triazol-5-ylbenzamide]
> 1	–	O=C(Oc1ccccc1F)n1nc(-c2cccnc2)nc1NCc1ccc(F)cc1 [Cmpd 173, 2-fluorophenyl 5-[(4-fluorophenyl)methyl]amino-3-(pyridin-3-yl)-1H-1,2,4-triazole-1-carboxylate]
> 1	–	c1cncc(-c2n[nH]c(NCc3cccs3)n2)c1 [Cmpd 178, 3-(pyridin-3-yl)-N-(thiophen-2-ylmethyl)-1H-1,2,4-triazol-5-amine]
< 0.1	–	CSc1nc(-c2cccnc2)nn1C(=O)c1ccccc1Cl [Cmpd 180, 3-1-[(2-chlorophenyl)carbonyl]-5-(methylsulfanyl)-1H-1,2,4-triazol-3-ylpyridine]
0.1 to 1	–	O=C(c1ccccc1Cl)n1nc(-c2cccnc2)nc1SCc1ccc(F)cc1 [Cmpd 181, 3-1-[(2-chlorophenyl)carbonyl]-5-[(4-fluorophenyl)methyl]sulfanyl-1H-1,2,4-triazol-3-ylpyridine]
> 1	–	CC(C)NC(=O)n1nc(-c2cccnc2)nc1NCc1ccc(F)cc1 [Cmpd 190, 5-[(4-fluorophenyl)methyl]amino-N-(propan-2-yl)-3-(pyridin-3-yl)-1H-1,2,4-triazole-1-carboxamide]
> 1	–	O=C(Nc1ccccc1)n1nc(-c2cccnc2)nc1NCc1ccc(F)cc1 [Cmpd 191, 5-[(4-fluorophenyl)methyl]amino-N-phenyl-3-(pyridin-3-yl)-1H-1,2,4-triazole-1-carboxamide]
0.1 to 1	–	CCOC(=O)n1nc(-c2cccnc2)nc1NCc1ccc(F)cc1 [Cmpd 192, ethyl 5-[(4-fluorophenyl)methyl]amino-3-(pyridin-3-yl)-1H-1,2,4-triazole-1-carboxylate]
> 1	–	COC(=O)c1n[nH]c(NC(=O)c2ccccc2OC)n1 [Cmpd 194, methyl 5-[(2-methoxybenzene)amido]-1H-1,2,4-triazole-3-carboxylate]
> 1	–	COC(=O)c1n[nH]c(NC(=O)c2ccc(C)cc2)n1 [Cmpd 196, methyl 5-[(4-methylbenzene)amido]-1H-1,2,4-triazole-3-carboxylate]
> 1	–	COc1ccccc1C(=O)n1nc(-c2ccccn2)nc1NCc1csc2ccccc12 [Cmpd 199, N-(1-benzothiophen-3-ylmethyl)-1-[(2-methoxyphenyl)carbonyl]-3-(pyridin-2-yl)-1H-1,2,4-triazol-5-amine]
